{"source": "patent US20260357306A1", "about": "“ONE-POT FERMENTATIVE PRODUCTION OF GLYCOLATE OR OTHER HYDROXYCARBOXYLIC ACIDS” (PHYCUS BIOTECHNOLOGIES INC., priority 2023, published 2026)", "format_in_all_cases": "biochemical", "key": {"[1]": {"molecular_target": "T1, Gluconobacter oxydans alcohol dehydrogenase goxADH (Gox0313), SEQ ID NO: 206 (Gluconobacter oxydans, UniProt Q5FU50)", "T1 sequence (Q5FU50 1-343)": "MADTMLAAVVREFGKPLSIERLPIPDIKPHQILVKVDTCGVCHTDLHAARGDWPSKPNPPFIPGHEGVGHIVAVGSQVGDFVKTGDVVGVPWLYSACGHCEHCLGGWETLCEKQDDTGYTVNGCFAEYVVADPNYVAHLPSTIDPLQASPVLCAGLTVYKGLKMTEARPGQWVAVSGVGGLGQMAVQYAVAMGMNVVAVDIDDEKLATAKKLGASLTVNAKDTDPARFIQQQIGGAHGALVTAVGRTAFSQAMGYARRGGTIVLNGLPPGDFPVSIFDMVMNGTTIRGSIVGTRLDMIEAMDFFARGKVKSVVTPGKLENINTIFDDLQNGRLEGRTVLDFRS", "assay": "Alcohol dehydrogenase (EG oxidation) Michaelis-Menten kinetics, goxADH", "settings": "role: substrate; relative to goxADH", "excerpt": "(§1) Enzyme expression and purification: The enzymes of interest were genetically engineered in the E. coli BL21 (DE3) strain on a high copy plasmid under control of the T7 promoter. The enzymes were tagged with a hexahistidine (His-tag) sequence to facilitate for purification. Post-expression, the His-tagged enzymes were selectively bound to a nickel-charged immobilized metal affinity chromatography (IMAC) resin, exploiting the high affinity between histidine residues and nickel ions. Upon washing away non-specifically bound proteins, the His-tagged enzymes were eluted with an imidazole-containing buffer and subsequently used for enzymatic assays.\n(§2) Enzyme assays: Standard enzyme characterization protocols were performed to determine the activities of the enzymes. Dehydrogenase activity against the substrates was determined using a continuous assay following the increase in absorbance at 340 nm ε340 (NADH)=6.22 mM^−1. cm^−1, and ε340 (NADPH)=6.2 mM^−1·cm^−1]. […]\n(§3) The candidate alcohol dehydrogenase enzymes were next characterized for their enzymatic activity. […] Reactions were initiated by the addition of the purified enzyme and enzymatic activity was measured by monitoring the formation of the product (glycolaldehyde) over time as described in Example 8.1. […]"}, "[2]": {"molecular_target": "Mycobacterium marinum alcohol dehydrogenase mmaADH, SEQ ID NO: 215 (Mycobacterium marinum, UniProt B2HH60)", "sequence (B2HH60 entry or part of it)": "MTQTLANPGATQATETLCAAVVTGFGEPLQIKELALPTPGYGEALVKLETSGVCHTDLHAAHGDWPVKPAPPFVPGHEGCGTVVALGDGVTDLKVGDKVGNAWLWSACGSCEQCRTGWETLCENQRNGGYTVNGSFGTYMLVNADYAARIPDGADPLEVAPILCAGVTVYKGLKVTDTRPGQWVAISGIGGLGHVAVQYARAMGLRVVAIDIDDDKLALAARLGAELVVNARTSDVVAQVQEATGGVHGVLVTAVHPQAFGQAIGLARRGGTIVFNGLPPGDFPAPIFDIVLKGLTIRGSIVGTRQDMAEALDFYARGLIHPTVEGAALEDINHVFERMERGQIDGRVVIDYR", "assay": "Alcohol dehydrogenase (EG oxidation) Michaelis-Menten kinetics, mmaADH", "settings": "role: substrate; relative to goxADH", "excerpt": "as §1, §2, §3"}, "[3]": {"molecular_target": "Moraxella sp. (strain TAE123) alcohol dehydrogenase mtaADH, SEQ ID NO: 209 (Moraxella sp. TAE123, UniProt Q8GIX7)", "sequence (Q8GIX7 whole entry)": "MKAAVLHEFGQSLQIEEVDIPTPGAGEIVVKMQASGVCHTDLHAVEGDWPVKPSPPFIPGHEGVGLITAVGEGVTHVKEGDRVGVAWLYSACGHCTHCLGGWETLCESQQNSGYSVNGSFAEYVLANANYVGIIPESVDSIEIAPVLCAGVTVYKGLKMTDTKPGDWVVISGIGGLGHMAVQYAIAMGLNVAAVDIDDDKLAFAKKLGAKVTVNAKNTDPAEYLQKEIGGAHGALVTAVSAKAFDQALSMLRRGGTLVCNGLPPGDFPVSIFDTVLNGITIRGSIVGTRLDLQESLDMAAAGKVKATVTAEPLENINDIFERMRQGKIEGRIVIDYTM", "assay": "Alcohol dehydrogenase (EG oxidation) Michaelis-Menten kinetics, mtaADH", "settings": "role: substrate; relative to goxADH", "excerpt": "as §1, §2, §3"}, "[4]": {"molecular_target": "T2, Gluconobacter morbifer alcohol dehydrogenase gmoADH, SEQ ID NO: 207 (Gluconobacter morbifer, UniProt G6XLF0)", "T2 sequence (G6XLF0 1-343)": "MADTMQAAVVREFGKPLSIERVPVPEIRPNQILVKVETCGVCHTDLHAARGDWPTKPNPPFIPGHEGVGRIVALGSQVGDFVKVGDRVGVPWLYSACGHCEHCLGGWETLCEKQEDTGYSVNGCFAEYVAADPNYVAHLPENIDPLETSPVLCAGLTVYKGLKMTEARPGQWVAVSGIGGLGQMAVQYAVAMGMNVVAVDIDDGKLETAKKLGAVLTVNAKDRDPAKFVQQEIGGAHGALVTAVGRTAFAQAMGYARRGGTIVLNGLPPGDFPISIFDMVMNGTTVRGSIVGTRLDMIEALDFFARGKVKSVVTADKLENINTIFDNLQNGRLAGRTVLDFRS", "assay": "Alcohol dehydrogenase (EG oxidation) Michaelis-Menten kinetics, gmoADH", "settings": "role: substrate", "excerpt": "as §1, §2, §3"}, "[5]": {"molecular_target": "T3, Gluconobacter diazotrophicus alcohol dehydrogenase gdiADH, SEQ ID NO: 208 (Gluconacetobacter diazotrophicus, UniProt A9HNA5)", "T3 sequence (A9HNA5 1-354)": "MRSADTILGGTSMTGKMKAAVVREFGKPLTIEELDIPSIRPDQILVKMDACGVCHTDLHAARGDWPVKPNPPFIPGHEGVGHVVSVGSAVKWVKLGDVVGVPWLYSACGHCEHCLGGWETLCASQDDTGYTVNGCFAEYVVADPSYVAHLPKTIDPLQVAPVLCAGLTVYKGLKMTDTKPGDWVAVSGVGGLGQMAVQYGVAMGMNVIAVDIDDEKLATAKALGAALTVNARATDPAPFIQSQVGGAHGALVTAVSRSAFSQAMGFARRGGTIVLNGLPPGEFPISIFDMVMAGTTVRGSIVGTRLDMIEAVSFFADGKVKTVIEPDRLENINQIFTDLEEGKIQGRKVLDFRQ", "assay": "Alcohol dehydrogenase (EG oxidation) Michaelis-Menten kinetics, gdiADH", "settings": "role: substrate", "excerpt": "as §1, §2, §3"}}, "data": [{"smiles": "OCCO", "note": "[ethylene glycol]", "values": [{"measurement": "Relative Vmax", "setting": "[1]", "value": 1.0}, {"measurement": "Relative Vmax", "setting": "[2]", "value": 1.1}, {"measurement": "Relative Vmax", "setting": "[3]", "value": 1.6}, {"measurement": "Relative Vmax", "setting": "[4]; relative to goxADH", "value": 2.5}, {"measurement": "maximum catalytic rate (EG turnover rate), fold higher than goxADH", "setting": "[4]; versus goxADH", "value": 2.5, "unit": "fold"}, {"measurement": "Relative Vmax", "setting": "[5]; relative to goxADH", "value": 3.8}, {"measurement": "maximum catalytic rate (EG turnover rate), fold higher than goxADH", "setting": "[5]; versus goxADH", "value": 3.8, "unit": "fold"}]}]}
